Data as given in ChEMBL document CHEMBL6109142 (J Med Chem, 2025).
The source made the active and inactive calls. The rule behind the calls is not given here.

System: SARS-CoV-2
Assay: Antiviral activity against SARS-CoV-2 pseudotyped with delta spike protein infected in HEK293T cells harbouring hACE2 assessed as decrease in virus-like particle cellular entry at 10 uM preincubated with cells for 3 hrs followed by viral infection and measured after 72 hrs by ONE-Glo-Ex luciferase assay
Assay type: functional, organism-based
Conditions: Severe acute respiratory syndrome coronavirus 2, time 75.0 hrs

For `CS(=O)(=O)N[C@@H](CCC(N)=O)C(=O)N[C@@H](Cc1ccccc1)C(=O)N[C@@H](CCCNC(=N)N)C(=O)c1nc2ccccc2s1`, the Activity was “inactive”.

With `CN(C)C(=O)COC(=O)Cc1ccc(OC(=O)c2ccc(NC(=N)N)cc2)cc1` [CAMOSTAT] the Activity was “inactive”.

In the case of `CCOC(=O)[C@H]1O[C@@H]1C(=O)N[C@@H](CC(C)C)C(=O)NCCC(C)C`, the Activity was “Active”.

`N=C(N)NCCC[C@H](NC(=O)[C@H](Cc1ccccc1)NC(=O)[C@H](CCC(N)=O)NC(=O)OCc1ccccc1)C(=O)c1nccs1` was tested, and the Activity was “inactive”.
